pEC50: −log10 of the molar value.
Assays:
G93A SOD1 mice = experiment: In vivo neuroprotection in the G93A SOD1 mouse
Text: Numerous studies have documented a contributory role for excess glutamate in this mouse model- and role for modulating glutamate receptors or transporters in neuroprotective strategies. Guo H., et al. Hum Mol Genet. 2003; 12:2519-2532. Modest over expression—by a transgenic approach—can alter disease onset and/or survival.

[1] = tested on: primary cortical mixed neuronal-glial cell cultures; settings: 1 μM added 48 hours prior to 1 hour OGD; 50% without drug
Method: Method. Primary cortical mixed neuronal-glial cell cultures are prepared from gestation day 14-16 CD1 mice. The preparation of these cultures from mouse fetal cortex is well-described. Experiments are performed at days in vitro 13-15. In the experimental condition, cultures are subjected to oxygen glucose deprivation (OGD), an in-vitro model of ischemia. Cortical cells are either subjected to control treatment (media, modified Earle's balanced salt solution including glucose and bubbled with 5% CO2 95% O2, is changed alongside treatment groups, but no OGD is performed), or 5 minutes (sublethal) of OGD (using modified Earle's balanced salt solution which is devoid of glucose and bubbled with 10% H2, 85% N2, and 5% to deoxygenate). Anaerobic conditions are achieved using an anaerobic chamber at 37° C. OGD is terminated by exchange of media back to oxygenated growing medium. Twenty-four hours following the above, cortical cells are subjected either to no treatment, or one hour of OGD. Neuronal survival is determined by computer-assisted cell counting after staining with the fluorescent vital dyes propidium iodide (as an indicator of neuronal death) and Hoechst 33342 (as an indicator of total number of neurons) and is presented as percent of cell death. Glial nuclei fluoresce at a lower intensity and are gated out. […] Following 1 hour OGD, cells are returned to growing medium without drugs.

[2] = tested on: large ventral horn motor neurons in organotypic spinal cord cultures; experiment: In vitro model of chronic motor neurodegeneration (THA, organotypic spinal cord cultures); assay type: cell-based, rat; settings: THA 100 μM, ceftriaxone 0 to 100 μM, 4 weeks
Method: In vitro model of chronic motor neurodegeneration (FIG. 7B). A model of chronic neurodegeneration was used, based on the blockade of glutamate transport in spinal cord organotypic cultures, with the non specific inhibitor threo-hytdroyxaspartate (THA) or TBOA. Chronic incubation of cultures with THA (or TBOA) leads to chronic increase in extra cellular glutamate and subsequent slow death of motor neurons (over 4 weeks).
To determine if drug induced GLT1 promoter activation, and the subsequent over expression of GLT1 protein could be neuroprotective, we used the organotypic spinal cord paradigm. Organotypic spinal cord cultures were prepared from lumbar spinal cords of 8-day-old rat pups, as described previously. […] No drugs were added for the first 7 days following culture preparation. THA was then added to experimental cultures at a concentration of 100 μM, which produces death of motor neurons within 3 to 4 weeks. […] After 4 weeks, cultures were fixed, and immuostained for neurofilament (SMI-32, Sternberger) to quantify large ventral horn motor neurons (a well established method to follow motor neuron survival in this system).

EAAT2 = experiment: Spinal cord organotypic culture screen for EAAT2 protein expression (slot blot); assay type: cell-based, rat
Method: Screening Assay for EAAT2 Protein overexpression. […] Organotypic Spinal Cord. […] Briefly, 300 um sections of rat lumbar spinal cord, from postnatal day 8-10 rat pups, are placed on Millipore Millicell CM semipermeable membranes. Each well contains 5 slices (FIG. 2A). […] Each drug (10-100 μM) was added for 3 days, along with cell culture medium/serum. Cultures were harvested and 5-50 μg of tissue was applied to slot blot apparatus for detection of EAAT2 by standard Western blotting/chemiluminescence methods described in the past. […] All antipeptide antibodies were affinity purified and highly specific for transporter subtypes. […] For each antibody slot blot, the homogenates used are expected to be within the linear range for antibody detection, based on prior standard curves. Screening Library-Assay Design. […] The library is composed of 1040 compounds in 96 well plates, that also included positive control for transporter synthesis (dibutyryl cyclic AMP [dbcAMP], GDNF). […] Each compound was studied at a final concentration of 10-100 μM. All assays were performed in duplicate. Data Analysis. All blots were analyzed by laser densitometry (BioRad Image Quant) and the duplicate points were averaged. Each blot included a positive control standard (e.g. dbcAMP) and a negative control standard (e.g. serum, DMSO). […]

[3] = tested on: cultures prepared from GLT-1 null mice; experiment: Chronic motor neurodegeneration model in cultures prepared from GLT-1 null mice; assay type: cell-based; settings: not shown
[4] = 200 mg/kg ip from approximately 12 weeks of age

Compound: CO/N=C(\C(=O)N[C@@H]1C(=O)N2C(C(=O)O)=C(CSc3nc(=O)c(=O)[nH]n3C)CS[C@H]12)c1csc(N)n1 [ceftriaxone]
- duration of strength effect (G93A SOD1 mice; [4]): 4 weeks
- time after treatment at which strength effect was observed (G93A SOD1 mice; [4]): ≤ 7 days
- increase in over all survival (G93A SOD1 mice; 200 mg/kg ip from approximately 12 weeks of age (disease onset)): 7 to 10 days
- loss of muscle strength (grip strength) (G93A SOD1 mice; 200 mg/kg ip from approximately 12 weeks of age, preservation lost by 18 weeks of age): significantly delayed loss of muscle strength
- percentage of neuronal cell death after 1 hour OGD [1]: 20%
- motor neuron loss [2]: prevented motor neurons loss in a dose dependent manner
- increase of GLT1 protein and function (EAAT2; at the concentration used for neuroprotection (Preliminary Data Phases 1 and 2)): at least 3 fold
- pEC50 (EAAT2; follow-up dose response analysis, spinal cord organotypic cultures): 5.46
- neuroprotection in GLT-1 null cultures [3]: neuroprotection cannot be seen
